Reference: patent US20070027079A1, “GHRP 2 strips” (priority 2005, published 2007)
Where a SMILES comes first, the peptide text is derived from it. [ ]: non-standard residue; d: D form. d2Nal = N[C@H](Cc1ccc2ccccc2c1)C(=O)O

Assay: Certificate of analysis GHRP-2: solubility
Assay type: physicochemical
Settings: specification: soluble in water and 1% acetic acid at a concentration of ≧1 mg/ml to give a clear, colorless solution; batch 6P-20030403

Compound: C[C@H](NC(=O)[C@@H](Cc1ccc2ccccc2c1)NC(=O)[C@@H](C)N)C(=O)N[C@@H](Cc1c[nH]c2ccccc12)C(=O)N[C@H](Cc1ccccc1)C(=O)N[C@@H](CCCCN)C(N)=O [GHRP-2, D-Ala-D-Nal-Ala-Trp-D-Phe-Lys-NH2] (H-[dA][d2Nal]AW[dF]K-NH2)
- Solubility: Complies
